Assay results as given in ChEMBL document CHEMBL2074391, “Overlapping substrate specificities of cytochrome P450 3A and P-glycoprotein for a novel cysteine protease inhibitor” (Drug Metab Dispos, 1998).

Legend:
[1] = biological target: ATP-dependent translocase ABCB1 (Homo sapiens, UniProt P08183); experiment: TP_TRANSPORTER: transepithelial transport (basal to apical) in MDR1-expressing MDCK cells; assay type: functional, cell-based; settings: dog
ABCB1 (P-glycoprotein) [2] = biological target: T1, ABCB1 (P-glycoprotein) (Homo sapiens, UniProt P08183); experiment: TP_TRANSPORTER: inhibition of photolabeling by LU-49888 (LU-49888: 0.1 uM, K02: 10 uM) in membranes from CEM5k cells; assay type: functional, cell membranes, Membrane; settings: probe LU-49888 (0.1 uM)
T1 sequence (P08183 whole entry): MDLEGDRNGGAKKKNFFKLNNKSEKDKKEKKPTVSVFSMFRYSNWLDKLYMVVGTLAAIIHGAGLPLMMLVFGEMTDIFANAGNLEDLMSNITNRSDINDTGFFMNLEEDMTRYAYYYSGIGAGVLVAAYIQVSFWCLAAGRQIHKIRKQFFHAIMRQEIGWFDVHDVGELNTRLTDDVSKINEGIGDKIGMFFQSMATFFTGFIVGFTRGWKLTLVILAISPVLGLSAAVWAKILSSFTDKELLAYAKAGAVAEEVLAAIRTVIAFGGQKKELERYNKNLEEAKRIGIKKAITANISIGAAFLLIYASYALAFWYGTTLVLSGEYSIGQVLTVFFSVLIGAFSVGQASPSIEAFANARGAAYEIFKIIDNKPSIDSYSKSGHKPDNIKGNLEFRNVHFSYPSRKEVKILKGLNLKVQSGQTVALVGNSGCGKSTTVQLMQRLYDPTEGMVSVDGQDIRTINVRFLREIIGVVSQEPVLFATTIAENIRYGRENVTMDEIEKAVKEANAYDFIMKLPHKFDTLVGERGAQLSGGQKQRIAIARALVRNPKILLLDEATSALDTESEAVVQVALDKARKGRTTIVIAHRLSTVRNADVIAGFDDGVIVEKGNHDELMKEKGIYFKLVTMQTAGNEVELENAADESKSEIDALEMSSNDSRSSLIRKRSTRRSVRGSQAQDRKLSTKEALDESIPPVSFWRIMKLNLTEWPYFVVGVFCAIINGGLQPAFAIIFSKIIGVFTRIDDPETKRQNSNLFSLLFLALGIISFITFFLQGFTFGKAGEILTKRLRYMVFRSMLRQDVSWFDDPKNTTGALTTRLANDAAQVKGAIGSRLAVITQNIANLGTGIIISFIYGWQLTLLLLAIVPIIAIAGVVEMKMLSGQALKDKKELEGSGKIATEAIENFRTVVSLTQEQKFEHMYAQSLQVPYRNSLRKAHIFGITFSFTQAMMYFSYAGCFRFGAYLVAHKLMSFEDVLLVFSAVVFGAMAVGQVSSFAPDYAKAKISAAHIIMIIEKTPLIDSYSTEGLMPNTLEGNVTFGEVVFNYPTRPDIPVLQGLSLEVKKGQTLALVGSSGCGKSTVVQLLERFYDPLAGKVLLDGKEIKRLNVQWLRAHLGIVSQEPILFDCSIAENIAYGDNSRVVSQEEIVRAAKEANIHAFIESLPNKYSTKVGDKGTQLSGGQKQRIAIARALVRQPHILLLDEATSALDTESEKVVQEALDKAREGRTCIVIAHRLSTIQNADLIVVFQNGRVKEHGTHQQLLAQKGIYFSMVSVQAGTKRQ

ABCB1 (P-glycoprotein) [3] = biological target: T1, ABCB1 (P-glycoprotein); experiment: TP_TRANSPORTER: inhibition of photolabeling by Azidopine (Azidopine: 0.05 uM, K02: 10 uM) in membranes from CEM5k cells; assay type: functional, cell membranes, Membrane; settings: probe Azidopine (0.05 uM)

ATP-dependent translocase ABCB1, sequence (P08183 whole entry): as above

Activity [1]: substrate [+]
inhibition at 10 µM (ABCB1 (P-glycoprotein) [2]): 80%
inhibition at 10 µM (ABCB1 (P-glycoprotein) [3]): 74%
Structure (SMILES): O=C(N[C@H](/C=C/S(=O)(=O)c1ccccc1)CCc1ccccc1)[C@H](Cc1ccccc1)NC(=O)N1CCOCC1
